{
  "source": "patent US20060257875A1",
  "about": "“Affinity screening using \"one-bead-one-compound\" libraries” (Carlsberg A/S, priority 2003, published 2006)",
  "key": {"[1]": {"test_system": "PE-induced myocyte protein", "test": "Solid phase screening of Library 6 with unlabeled myocyte proteins; silver staining, on-bead tryptic digest", "type": "binding, neonatal Wistar rats", "conditions": "PE-Treated Myocytes", "protocol": "(§1) Myocytes were prepared from 1 to 5 day old neonatal Wistar rats (University of Copenhagen) according to literature procedure described in Busk et al., 2002, Cardiovasc. Res., 56: 64-75 and plated into eight P10 culture plates at 6 million cells/plate.\nIsolated proteins that bound to specific ligands were identified using peptide mass fingerprinting. Mass spectra were recorded on a Bruker Reflex m MALDI time-of-flight mass spectrometer (Bruker-Daltonics, Bremen, Germany) operated in the positive reflectron mode using delayed extraction. Measurements were performed using the following parameters: Power 83-84 V; lens 7.300. The sum of 200-300 shots was used for each spectrum.\nThe spectra were calibrated using bradykinin peptide. In some cases, internal mass calibration was performed using a porcine trypsin autolysis product Peptide masses were searched against peptide mass maps in the National Center for Biotechnology Information (NCBI) database using the following search engines found on the world wide web (www.) for each of: • MS-FIT (prospector.ucsf.edu/ucsfhtml/msfit.htm), • Profound (129.85.19.192/profound_biniWebProFound.exe), and • MASCOT (matrixscience.com).\nA search was performed using the NCBI bacterial (E. coli) database and the mammalian databases for the isolated proteins from the E. coli and myocyte samples, respectively, and the Swiss Prot mammalian databases and the Swiss Prot viral databases were searched to identify the porcine macrophage proteins and proteins, respectively. A molecular mass range was estimated from 0-250 K Da, allowing a mass accuracy that varied from 0.1 Da (some cases 0.3 Da) for each peptide mass. A large pI range from 0-14 or 0-12 was considered for each search. If no proteins matched, the mass window was extended. Partial enzyme cleavages allowing for two missed cleavage sites and modification of cysteine by alkylation were considered in the search approaches. A protein was considered identified if the matched peptides covered at least 30% of the complete sequence. A match of less than 30% was considered in some cases, if prominent peaks were obtained. Usually, four or more peptides were used for identification. In some instances, hypothetical proteins or gene products, such as biochemical material, either RNA or protein, calculated from the expected expression of a gene and to which a function may be assigned based on sequence homology, were identified.\nProtein was extracted from myocytes prepared as described above for Example 9, using a new procedure (to preserve the activity of metalloproteases) modified from existing protocols, primarily: Amott, et al., 1998, Anal. Biochem. 258: 1-18. The media was removed from plates and cells were washed with ice cold phosphate buffer (5 ml, 10 mM, pH 7.5, supplemented with 0.15 M NaCl,) to remove traces of media components. The adhered cells were treated for 10 minutes with ice cold phosphate buffer (2 mL, 10 mM, pH 7.5, augmented with 0.15 M NaCl, […] E-64, 10 μg/mL Leupeptin, and 10 μg/mL Pepstatin A). The cells were scraped off the plates and then lysed (on ice) in a sonicator (2×) using 10 seconds off/110 seconds on cycles.\n(§2) The resulting suspension was augmented with CHAPS (1% w/v), KCl (50 mM), NaCl (0.5 M), ZnCl2 (0.1 mM), DTT (5 mM), and urea (2 M). After 10-15 minutes on ice, the solution was centrifuged for 10 minutes at 15,000 rpm at 4° C. The supernatant was removed and protein content quantified using the NanoOrange Protein test (Molecular Probes, Eugene, Oreg.): Total protein recovered: 195 μg for PE-induced cells and 200 μg for basal cells.\nThe protein solutions were dialyzed extensively against 20 mM MES (2-[N-Morpholino]ethanesulfonic acid) buffer pH 6.0, supplemented with 0.15 M NaCl and 1 mM ZnCl2 to remove excess detergent and urea. […]"}, "[2]": {"test_system": "Serum induced (hypertrophied) Myocytes proteins", "test": "Solid phase screening of small molecule biaryl Library 7 with labeled myocyte proteins", "type": "binding, neonatal Wistar rats"}, "[3]": {"test_system": "normal porcine macrophage proteins", "test": "Solid phase screening of Library 4 with labeled porcine viral and macrophage proteins", "type": "binding", "conditions": "Normal Macrophages", "description": "Alternatively, the fluorescent ligand library beads containing bound protein obtained as described in Examples 47, 48, 49 and 51 were sorted using a COPAS (250) NF Bead Sorter (Union Biometrica, Somerville, Mass.) equipped with a dual detector. Both the cyanine dyes used in the labeling procedure, namely Cy 2 (emission wavelength—510 nm) and Cy 3 (emission wavelength—570 nm) were simultaneously excited at […] The bead selection window was then set-up such that all beads containing significant green fluorescence and no red flourescence were isolated. The unselected beads were then resorted to obtain beads containing red fluorescence (proteins from basal cells). […]\n(§3) A typical analysis employed 100-300 laser shots. […] The possible identity of the ligand was determined (Narrowed down) by comparing the recorded mass of the ligand with the masses of all possible compounds formed in the library. […]\n(§4) Isolated proteins that bound to specific ligands were identified using peptide mass fingerprinting. Mass spectra were recorded on a Bruker Reflex m MALDI time-of-flight mass spectrometer (Bruker-Daltonics, Bremen, Germany) operated in the positive reflectron mode using delayed extraction. […]"}, "[4]": {"test_system": "basal myocyte protein", "test": "Solid phase screening of Library 5 with labeled myocyte protein", "type": "binding, neonatal Wistar rats", "conditions": "Normal Myocytes", "protocol": "as §1\nProtein was extracted from myocytes prepared as described above for Example 9, using a new procedure modified from existing protocols, primarily: Arrott, et al., 1998, Anal Biochem. 258: 1-18. The media was removed from plates and adhered cells were treated for 10 minutes with ice cold phosphate buffer (0.25 mL, 10 mM, pH 7.5, augmented with 0.15 M NaCl 60 mM Benzamidine HCl, 5 mM EDTA, 10 μg/n E-64, 10 μg/mL Leu-peptin, 10 μg/mL Pepstatin A, and 1 mM PMSF). The cells were scraped off the plates and then lysed (on ice) in a sonicator (2×) using 10 seconds off/10 seconds on cycles.\nas §2, with “with CHAPS, DTT, and urea to a final concentration of” for “with”, “w/v),” for “w/v), KCl (50 mM), NaCl (0.5 M), ZnCl2 (0.1 mM),”, “(8” for “(2”, “70.5” for “195”, “PE-treated” for “PE-induced”, “60” for “200”\nFluorescent dye Oregon Green 514 (OR) (Molecular Probes) was used to label the healthy/basal cells while Rhodamine Red (RR) (Molecular Probes) was used to label the PE-treated cells. The labeling procedures were carried out according to the manufacturer's protocol. […]\nas §3, §4"}, "[5]": {"test_system": "Serum induced Myocytes proteins", "test": "Solid phase screening of Library 5 with labeled myocyte protein", "type": "binding, neonatal Wistar rats"}, "[6]": {"molecular_target": "isoleucine tRNA synthetase (Escherichia coli, UniProt P00956)", "sequence (P00956 whole entry)": "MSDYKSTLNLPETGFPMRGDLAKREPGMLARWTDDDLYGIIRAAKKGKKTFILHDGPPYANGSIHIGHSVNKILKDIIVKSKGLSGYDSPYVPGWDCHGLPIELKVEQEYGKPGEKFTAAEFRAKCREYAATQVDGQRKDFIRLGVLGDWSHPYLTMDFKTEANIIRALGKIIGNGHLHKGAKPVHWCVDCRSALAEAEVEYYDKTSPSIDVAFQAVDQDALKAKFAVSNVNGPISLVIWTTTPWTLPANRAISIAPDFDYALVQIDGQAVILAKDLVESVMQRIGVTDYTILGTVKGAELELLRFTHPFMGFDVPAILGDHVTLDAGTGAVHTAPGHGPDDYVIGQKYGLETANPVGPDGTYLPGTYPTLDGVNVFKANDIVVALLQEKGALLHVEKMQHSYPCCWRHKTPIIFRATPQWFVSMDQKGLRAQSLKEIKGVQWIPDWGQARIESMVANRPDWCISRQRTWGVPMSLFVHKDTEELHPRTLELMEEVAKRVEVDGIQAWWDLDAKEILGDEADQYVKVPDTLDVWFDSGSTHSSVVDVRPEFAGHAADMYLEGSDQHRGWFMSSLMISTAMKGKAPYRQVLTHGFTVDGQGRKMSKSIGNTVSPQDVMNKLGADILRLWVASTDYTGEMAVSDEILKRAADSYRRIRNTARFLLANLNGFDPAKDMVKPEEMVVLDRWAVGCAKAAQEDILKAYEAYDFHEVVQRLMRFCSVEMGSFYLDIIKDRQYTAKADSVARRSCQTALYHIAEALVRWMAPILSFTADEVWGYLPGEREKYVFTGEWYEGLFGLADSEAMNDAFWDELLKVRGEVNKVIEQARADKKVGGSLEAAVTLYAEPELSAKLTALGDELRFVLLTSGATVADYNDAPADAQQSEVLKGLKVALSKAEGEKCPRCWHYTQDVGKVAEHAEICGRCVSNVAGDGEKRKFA", "conditions": "Merck Manual; cited from earlier work"}, "[7]": {"test_system": "Myocytes", "test": "Proliferation of myocytes with phenylephrine (in vitro model of hypertrophy)", "type": "cell-based, neonatal Wistar rats", "conditions": "10 μM phenylephrine (PE); cells grown for two more days"}, "[8]": {"molecular_target": "T1, Phosphomannose isomerase (Candida albicans, UniProt P34948)", "T1 sequence (P34948 1-441)": "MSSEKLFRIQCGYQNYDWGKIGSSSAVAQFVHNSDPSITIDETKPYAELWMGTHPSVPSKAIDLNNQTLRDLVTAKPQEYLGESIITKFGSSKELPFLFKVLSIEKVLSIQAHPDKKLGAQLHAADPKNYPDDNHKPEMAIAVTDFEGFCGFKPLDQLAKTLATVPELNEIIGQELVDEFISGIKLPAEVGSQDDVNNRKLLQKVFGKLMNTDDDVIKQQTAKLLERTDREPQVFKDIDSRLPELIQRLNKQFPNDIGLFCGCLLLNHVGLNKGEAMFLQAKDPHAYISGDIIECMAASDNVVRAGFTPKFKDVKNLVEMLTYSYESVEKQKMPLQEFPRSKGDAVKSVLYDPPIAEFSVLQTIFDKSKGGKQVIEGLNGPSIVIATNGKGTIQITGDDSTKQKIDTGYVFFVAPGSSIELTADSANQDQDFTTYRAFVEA", "conditions": "in Candida; Wells et al, 1996; cited from earlier work"}},
  "data": [
    {"smiles": "CC(C)C(NC(CCCCN)C(=O)NCC(=O)O)C(C)C", "note": "(stereo not drawn)", "values": [
      {"measurement": "Identified Protein(s)", "setting": "[1]", "result": "Glycogen ssynthase kinase-3 beta factor (AQ9WV60)."}
    ]},
    {"smiles": "O=C(O)CNC(=O)c1ccc(-c2ccco2)o1", "values": [
      {"measurement": "Identified Protein(s)", "setting": "[2]", "result": "Serine-threonine kinase (gi 474842); Hemopexin precur- sor (Beta-1B-glycoprotein) (P02790); 116 kDa U5 small nuclear ribonucleoprotein component (O08810)."}
    ]},
    {"smiles": "COc1ccc(Br)c(OC)c1C(=O)NC1(C(=O)O)CCCCC1", "values": [
      {"measurement": "Identified Protein(s)", "setting": "[2]", "result": "Translin-associated protein X (Q99598); Hypothetical Protein ORF-1137 (P11260); Integrin alpha-1 (Laminin and collagen receptor VLA-1,CD49a) (P56199_."}
    ]},
    {"smiles": "C[C@H](NC(=O)[C@@H]1CCCCNC(=O)N1)C(=O)O", "note": "[HY1]", "values": [
      {"measurement": "Identified Protein(s)", "setting": "[3]", "result": "Protein kinase C binding protein 1 also contains a zinc finger domain with protein 8) (Q9U1U4); Guanine nucle- otide-binding protein G(S), alpha subunit (Adenylate cy- clase-stimulating G alpha protein) (P048949)."}
    ]},
    {"smiles": "O=C1NCCC[C@@H](C(=O)N[C@@H](CCc2ccccc2)C(=O)O)N1", "note": "[HY2]", "values": [
      {"measurement": "Identified Protein(s)", "setting": "[3]", "result": "Protein kinase byr2 (Protein kinase ste8) (MAP kinase) (P28829); Similar to protein kinase 2 (Testicular) (Q885R6); Thiamine-triphosphatase (Q8CgV7)."}
    ]},
    {"smiles": "O=C(O)c1ccc(CN2C[C@@H](CN(C(=O)c3ccccc3)C3(C(=O)O)CCCC3)N3C(=O)c4ccccc4[C@H]23)cc1", "note": "[HY3]", "values": [
      {"measurement": "Identified Protein(s)", "setting": "[4]", "result": "NADH-ubiquinone oxidoreductase B14 subunit (Q9CQZ5)."}
    ]},
    {"smiles": "O=C1c2ccccc2[C@@H]2N(Cc3ccc(O)cc3)C[C@@H](CN(C(=O)CCc3ccccc3)C3(C(=O)O)CCCC3)N12", "note": "[HY4]", "values": [
      {"measurement": "Identified Protein(s)", "setting": "[4]", "result": "NADH-ubiquinone oxidoreductase B14 subunit (Q9CQZ5)."}
    ]},
    {"smiles": "CC(CCc1ccccc1)N1C[C@@H](CN2Cc3ccccc3CC2C(=O)O)N2C(=O)c3ccccc3[C@H]12", "note": "(stereo partly drawn) [HY5]", "values": [
      {"measurement": "Identified Protein(s)", "setting": "[4]", "result": "Myosin Va (Myosin 5A, dilute myosin heavy chain, non muscle (Q9Y411)."}
    ]},
    {"smiles": "CCC(C)C(=O)N(C[C@@H]1CN(C(C)C)[C@H]2c3ccccc3C(=O)N12)[C@H]1CCCCN(CC(=O)O)C1=O", "note": "(stereo partly drawn) [HY8]", "values": [
      {"measurement": "Identified Protein(s)", "setting": "[5]", "result": "Zinc finger protein 339 (Q9BRPO); DNA repair protein RAD52 homolog (P43351)."}
    ]},
    {"smiles": "CC(C)N1CCCC(CN[C@H]2CCCCN(CC(=O)O)C2=O)N2C(=O)c3ccccc3[C@H]12", "note": "(stereo partly drawn) [HY9]", "values": [
      {"measurement": "Identified Protein(s)", "setting": "[5]", "result": "Zinc finger protein 339 (Q9BRPO); DNA repair protein RAD52 homolog (P43351)."}
    ]},
    {"smiles": "C/C(=C\\C(=O)OCCCCCCCCC(=O)O)C[C@@H]1OC[C@H](C[C@@H]2O[C@H]2[C@@H](C)[C@H](C)O)[C@@H](O)[C@H]1O", "note": "[Mupirocin]", "values": [
      {"measurement": "inhibition of isoleucine tRNA synthetase", "setting": "[6]", "result": "inhibits the enzyme isoleucine tRNA synthetase"}
    ]},
    {"smiles": "CNC[C@H](O)c1cccc(O)c1", "note": "[PE, phenylephrine]", "values": [
      {"measurement": "cell size at time of harvest", "setting": "[7]", "result": "significantly enlarged"}
    ]},
    {"smiles": "CCOC(=O)C(CCc1ccccc1)NC(CCCCN)C(=O)N1CCC[C@H]1C(=O)O", "note": "(stereo partly drawn) [drawing 175]", "values": [
      {"measurement": "Identified Protein(s)", "setting": "[1]", "result": "Angiotensin converting enzyme (P22967); U2 nuclear ribonucleoprotein auxiliary factor (gi 2842676)."}
    ]},
    {"smiles": "CCCCCCNC(=O)C(CCCCN)NC(C(C)C)C(C)C", "note": "(stereo not drawn) [drawing 179]", "values": [
      {"measurement": "Identified Protein(s)", "setting": "[1]", "result": "Heat Shock protein 70 kDa protein 12A (Q8KOU4)."}
    ]},
    {"smiles": "Nc1ccc(S(=O)(=O)Nc2ncccn2)cc1", "note": "[sulfadiazene]", "values": [
      {"measurement": "inhibition of phosphomannose isomerase", "setting": "[8]", "result": "inhibited"}
    ]}
  ]
}
